The values that follow are results of earlier work, collected in patent US20160051485A1, “Biodegradable Bionanoparticles for Releasing the GSE24-2 Peptide, Method for the Production Thereof, and Use of Same” (CONSEJO SUPERIOR DE INVESTIGACIONES (CSIC), priority 2013, published 2016).

The test system of this data set is F9A353V cells. Particulars: transfection of the peptide using a lipid compound; previous experiments.

“GSE24.2: fragment of 55 amino acids of the internal domain of dyskerin (TRUB domains), activating telomerase (GFINLDKPSNPSSHEVVAWIRRILRVEKTGHSGTLDPKVTGCLIVCIERATRLVK; listed as Homo sapiens)”: the “Signal of the histone H2AX” value is given as “reduces the signal of the histone H2AX”.
